Measured values taken from patent US8710038B2, “Pyrazole kinase modulators and methods of use” (Exelixis, Inc., priority 2004, dated 2014).

Assays:
EGFR = EGFR (Homo sapiens, UniProt P00533); test: EGFR kinase inhibition assay; format: biochemical
EphB4 = target: T1, EphB4 (Homo sapiens, UniProt P54760); test: EphB4 kinase inhibition assay; format: biochemical
T1 sequence (P54760 16-987): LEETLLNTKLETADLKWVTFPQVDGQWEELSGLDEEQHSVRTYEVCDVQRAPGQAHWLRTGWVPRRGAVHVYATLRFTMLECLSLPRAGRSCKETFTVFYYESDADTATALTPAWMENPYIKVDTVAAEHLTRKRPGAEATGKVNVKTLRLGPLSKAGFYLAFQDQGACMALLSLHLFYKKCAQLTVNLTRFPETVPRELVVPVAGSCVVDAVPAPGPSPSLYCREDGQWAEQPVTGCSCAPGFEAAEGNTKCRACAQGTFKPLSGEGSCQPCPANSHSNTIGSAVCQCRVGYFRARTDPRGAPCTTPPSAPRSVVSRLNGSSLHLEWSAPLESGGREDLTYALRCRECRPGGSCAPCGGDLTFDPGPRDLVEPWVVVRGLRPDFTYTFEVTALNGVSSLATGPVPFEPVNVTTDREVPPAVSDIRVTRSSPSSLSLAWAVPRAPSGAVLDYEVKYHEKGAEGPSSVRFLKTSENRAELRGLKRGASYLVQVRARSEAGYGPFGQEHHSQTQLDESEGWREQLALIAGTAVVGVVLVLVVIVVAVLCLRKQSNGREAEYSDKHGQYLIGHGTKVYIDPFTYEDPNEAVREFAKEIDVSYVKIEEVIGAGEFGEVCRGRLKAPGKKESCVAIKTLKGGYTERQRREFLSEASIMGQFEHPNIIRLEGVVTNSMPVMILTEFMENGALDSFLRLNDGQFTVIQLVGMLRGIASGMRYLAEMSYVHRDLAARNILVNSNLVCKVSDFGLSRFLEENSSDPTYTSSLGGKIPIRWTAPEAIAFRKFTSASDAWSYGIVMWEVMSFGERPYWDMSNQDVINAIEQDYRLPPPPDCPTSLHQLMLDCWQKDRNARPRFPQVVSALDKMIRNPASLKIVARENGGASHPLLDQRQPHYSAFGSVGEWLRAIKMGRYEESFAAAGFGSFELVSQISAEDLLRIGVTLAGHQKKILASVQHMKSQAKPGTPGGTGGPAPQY
Summary of the method: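 ATP near each kinase's KM; 10-point dose-response fitted to a four-parameter equation for IC50. Formats: γ33P-ATP transfer to plate-coated substrate (1.5-2.5 h, ambient, scintillation), luciferase-coupled ATP-consumption read-out (2-4 h, 25-45% ATP consumed), or AlphaScreen with biotinylated poly(Glu,Tyr) 4:1 (1 h).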

flt-3 = target: T2, flt-3 (Homo sapiens, UniProt P36888); test: flt-3 Luciferase-Coupled Chemiluminescent Kinase assay (LCCA); format: biochemical
T2 construct: baculovirus expressed human Flt-3 kinase domain R571-S993
T2 sequence (P36888 571-993): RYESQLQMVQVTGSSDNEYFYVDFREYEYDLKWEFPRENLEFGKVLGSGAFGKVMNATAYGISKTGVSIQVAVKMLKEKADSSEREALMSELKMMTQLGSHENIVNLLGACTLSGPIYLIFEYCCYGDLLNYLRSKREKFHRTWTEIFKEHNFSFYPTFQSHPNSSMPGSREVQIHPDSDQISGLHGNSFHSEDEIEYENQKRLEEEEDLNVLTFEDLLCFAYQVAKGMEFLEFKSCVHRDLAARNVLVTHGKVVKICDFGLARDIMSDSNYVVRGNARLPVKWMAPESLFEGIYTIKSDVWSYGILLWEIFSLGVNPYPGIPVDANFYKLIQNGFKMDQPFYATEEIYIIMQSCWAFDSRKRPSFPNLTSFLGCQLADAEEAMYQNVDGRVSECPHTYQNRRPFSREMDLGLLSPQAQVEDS
Summary of the method: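 Baculovirus-expressed human Flt-3 kinase domain (R571-S993, 5 nM) was reacted with 5 μM ATP and 3 μM poly-EY in Tris pH 7.5 buffer with MgCl2/MnCl2 for 3 h at ambient temperature. Remaining ATP was read by luciferase-luciferin chemiluminescence, with ATP consumption standardized to 25-45%, for IC50.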

c-Kit = c-Kit (Homo sapiens, UniProt P10721); test: c-Kit biochemical assay (AlphaScreen)
Summary of the method: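 Kinase, compound, ATP and biotinylated poly(Glu,Tyr) 4:1 reacted 1 hr at ambient temperature; quenched with EDTA buffer (pH 7.4) containing streptavidin donor and anti-phosphotyrosine PY100 acceptor beads, incubated 16 hr, then AlphaScreen signal read to give IC50.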

Chain of c-Kit (P10721 26-976): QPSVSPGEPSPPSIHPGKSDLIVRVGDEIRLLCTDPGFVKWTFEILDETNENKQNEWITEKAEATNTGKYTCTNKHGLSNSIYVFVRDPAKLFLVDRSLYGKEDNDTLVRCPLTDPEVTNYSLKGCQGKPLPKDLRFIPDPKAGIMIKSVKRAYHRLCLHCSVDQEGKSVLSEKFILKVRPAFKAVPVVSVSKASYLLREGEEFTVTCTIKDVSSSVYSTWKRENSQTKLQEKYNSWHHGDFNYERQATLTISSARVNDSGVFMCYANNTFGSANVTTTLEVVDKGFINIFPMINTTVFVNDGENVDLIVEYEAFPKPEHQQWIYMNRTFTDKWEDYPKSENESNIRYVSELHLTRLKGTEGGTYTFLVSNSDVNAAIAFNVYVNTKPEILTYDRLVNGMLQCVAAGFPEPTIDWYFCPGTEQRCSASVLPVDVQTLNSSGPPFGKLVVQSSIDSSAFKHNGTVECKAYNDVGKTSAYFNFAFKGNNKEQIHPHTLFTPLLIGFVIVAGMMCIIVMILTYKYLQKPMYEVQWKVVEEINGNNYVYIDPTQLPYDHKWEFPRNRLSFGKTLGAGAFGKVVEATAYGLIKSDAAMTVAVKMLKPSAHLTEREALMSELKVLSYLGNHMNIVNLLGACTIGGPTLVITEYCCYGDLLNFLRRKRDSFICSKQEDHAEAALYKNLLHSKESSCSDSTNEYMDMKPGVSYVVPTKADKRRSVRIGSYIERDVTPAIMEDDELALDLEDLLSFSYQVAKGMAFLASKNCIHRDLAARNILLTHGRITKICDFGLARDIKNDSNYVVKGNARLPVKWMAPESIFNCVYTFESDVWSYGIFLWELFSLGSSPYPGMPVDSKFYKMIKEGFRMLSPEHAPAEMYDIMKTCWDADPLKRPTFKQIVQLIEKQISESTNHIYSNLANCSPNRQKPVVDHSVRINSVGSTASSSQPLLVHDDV
Chain of EGFR (P00533 25-1210, species assumed): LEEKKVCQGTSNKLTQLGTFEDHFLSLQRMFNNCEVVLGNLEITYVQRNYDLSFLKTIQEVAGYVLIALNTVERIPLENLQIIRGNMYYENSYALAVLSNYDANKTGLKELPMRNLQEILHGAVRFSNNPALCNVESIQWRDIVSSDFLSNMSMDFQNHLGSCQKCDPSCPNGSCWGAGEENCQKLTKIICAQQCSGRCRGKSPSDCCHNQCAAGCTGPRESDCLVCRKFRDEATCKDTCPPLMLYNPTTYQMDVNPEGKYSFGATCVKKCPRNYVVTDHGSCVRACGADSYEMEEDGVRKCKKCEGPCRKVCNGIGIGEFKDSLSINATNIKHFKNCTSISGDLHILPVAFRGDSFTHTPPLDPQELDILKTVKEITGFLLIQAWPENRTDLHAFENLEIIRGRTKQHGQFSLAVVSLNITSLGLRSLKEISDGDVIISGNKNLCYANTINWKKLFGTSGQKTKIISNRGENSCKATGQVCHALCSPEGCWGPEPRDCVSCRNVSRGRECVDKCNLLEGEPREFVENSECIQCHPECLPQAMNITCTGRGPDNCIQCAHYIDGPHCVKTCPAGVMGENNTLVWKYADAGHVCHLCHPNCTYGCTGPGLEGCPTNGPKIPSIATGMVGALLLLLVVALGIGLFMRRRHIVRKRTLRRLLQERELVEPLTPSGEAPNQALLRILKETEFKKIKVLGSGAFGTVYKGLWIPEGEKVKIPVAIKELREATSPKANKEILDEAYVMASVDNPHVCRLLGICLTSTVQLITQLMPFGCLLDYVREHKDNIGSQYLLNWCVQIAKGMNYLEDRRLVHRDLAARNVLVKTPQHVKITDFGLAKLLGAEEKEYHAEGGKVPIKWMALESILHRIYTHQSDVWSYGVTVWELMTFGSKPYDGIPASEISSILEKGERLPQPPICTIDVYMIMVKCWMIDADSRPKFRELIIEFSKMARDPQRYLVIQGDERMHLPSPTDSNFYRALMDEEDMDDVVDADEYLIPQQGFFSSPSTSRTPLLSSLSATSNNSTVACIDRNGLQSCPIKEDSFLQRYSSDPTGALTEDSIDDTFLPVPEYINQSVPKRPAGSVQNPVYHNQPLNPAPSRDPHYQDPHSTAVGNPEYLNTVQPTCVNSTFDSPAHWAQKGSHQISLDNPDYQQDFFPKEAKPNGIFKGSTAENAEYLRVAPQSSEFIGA

Compound	IC50 (EGFR) [nM]	IC50 (EphB4) [nM]	IC50 (flt-3) [nM]	IC50 (c-Kit) [nM]
Oc1ccc(/C=C/c2cc(-c3cc4ccccc4o3)n[nH]2)cc1 [Entry 45, 4-{(E)-2-[3-(1-benzofuran-2-yl)-1H-pyrazol-5-yl]ethenyl}phenol]	> 5000	> 5000	50 to 500	50 to 500
CN1CCN(c2ccc(-c3cc(-c4ccc(NC(=O)C(=O)NCCc5ccccc5)cc4)[nH]n3)cc2)CC1 [Entry 46, N-(4-{3-[4-(4-methylpiperazin-1-yl)phenyl]-1H-pyrazol-5-yl}phenyl)-N′-(2-phenylethyl)ethanediamide]	> 5000	500 to 5000	> 5000	50 to 500
Oc1ccc(/C=C/c2cc(-c3cc4ccccc4s3)n[nH]2)cc1 [Entry 49, 4-{(E)-2-[3-(1-benzothien-2-yl)-1H-pyrazol-5-yl]ethenyl}phenol]	> 5000	> 5000	50 to 500	50 to 500
O=C(Nc1ccc(-c2cc(-c3ccccc3)n[nH]2)cc1)Nc1ccc(Cl)c(C(F)(F)F)c1 [Entry 50, N-[4-chloro-3-(trifluoromethyl)phenyl]-N′-[4-(3-phenyl-1H-pyrazol-5-yl)phenyl]urea]	> 5000	> 5000	50 to 500	50 to 500
COc1cc(/C=C/c2cc(-c3ccccc3)[nH]n2)ccc1O [Entry 55, 2-(methyloxy)-4-[(E)-2-(5-phenyl-1H-pyrazol-3-yl)ethenyl]phenol]	> 5000	> 5000	50 to 500	50 to 500
Oc1ccc(/C=C/c2cc(-c3ccccc3F)[nH]n2)cc1 [Entry 57, 4-{(E)-2-[5-(2-fluorophenyl)-1H-pyrazol-3-yl]ethenyl}phenol]	> 5000	> 5000	50 to 500	50 to 500
COc1cc(/C=C/c2cc(/C=C/c3ccc(F)cc3F)n[nH]2)ccc1O [Entry 59, 4-((E)-2-{3-[(E)-2-(2,4-difluorophenyl)ethenyl]-1H-pyrazol-5-yl}ethenyl)-2-(methyloxy)phenol]	> 5000	> 5000	< 50	50 to 500
Oc1ccc(/C=C/c2cc(-c3ccc(F)cc3)[nH]n2)cc1 [Entry 60, 4-{(E)-2-[5-(4-fluorophenyl)-1H-pyrazol-3-yl]ethenyl}phenol]	> 5000	> 5000	< 50	50 to 500
Oc1ccc(/C=C/c2cc(-c3ccc(Cl)cc3)n[nH]2)cc1 [Entry 61, 4-{(E)-2-[3-(4-chlorophenyl)-1H-pyrazol-5-yl]ethenyl}phenol]	> 5000	> 5000	50 to 500	500 to 5000
O=C(Nc1ccccc1)Nc1ccc(-c2cc(-c3ccccc3)n[nH]2)cc1 [Entry 76, N-phenyl-N′-[4-(3-phenyl-1H-pyrazol-5-yl)phenyl]urea]	> 5000	> 5000	500 to 5000	500 to 5000

Next, values leading:

IC50 (EGFR) [nM]	IC50 (EphB4) [nM]	IC50 (flt-3) [nM]	IC50 (c-Kit) [nM]	Compound
> 5000	> 5000	< 50	50 to 500	COc1cc(/C=C/c2cc(/C=C/c3ccc(F)cc3)n[nH]2)ccc1O [Entry 44, 4-((E)-2-{3-[(E)-2-(4-fluorophenyl)ethenyl]-1H-pyrazol-5-yl}ethenyl)-2-(methyloxy)phenol]
> 5000	500 to 5000	< 50	50 to 500	Oc1ccc(/C=C/c2cc(-c3nc4ccccc4[nH]3)n[nH]2)cc1 [Entry 47, 4-{(E)-2-[3-(1H-benzimidazol-2-yl)-1H-pyrazol-5-yl]ethenyl}phenol]
> 5000	> 5000	< 50	50 to 500	COc1cc(/C=C/c2cc(/C=C/c3ccc(Cl)cc3)n[nH]2)ccc1O [Entry 48, 4-((E)-2-{3-[(E)-2-(4-chlorophenyl)ethenyl]-1H-pyrazol-5-yl}ethenyl)-2-(methyloxy)phenol]
> 5000	> 5000	< 50	50 to 500	CN1CCN(c2ccc(-c3cc(/C=C/c4ccc(O)cc4)[nH]n3)cc2)CC1 [Entry 51, 4-((E)-2-{3-[4-(4-methylpiperazin-1-yl)phenyl]-1H-pyrazol-5-yl}ethenyl)phenol]
> 5000	> 5000	50 to 500	50 to 500	Cc1ccc(F)cc1NC(=O)Nc1ccc(-c2cc(-c3ccc(N4CCN(C)CC4)cc3)[nH]n2)cc1 [Entry 53, N-(5-fluoro-2-methylphenyl)-N′-(4-{5-[4-(4-methylpiperazin-1-yl)phenyl]-1H-pyrazol-3-yl}phenyl)urea]
> 5000	> 5000	< 50	50 to 500	Oc1ccc(/C=C/c2cc(-c3ccccc3)n[nH]2)cc1 [Entry 54, 4-[(E)-2-(3-phenyl-1H-pyrazol-5-yl)ethenyl]phenol]
> 5000	> 5000	50 to 500	50 to 500	Oc1ccc(/C=C/c2cc(-c3ccc4ccccc4c3)[nH]n2)cc1 [Entry 56, 4-[(E)-2-(5-naphthalen-2-yl-1H-pyrazol-3-yl)ethenyl]phenol]
> 5000	> 5000	50 to 500	50 to 500	CN1CCN(c2cccc(-c3cc(/C=C/c4ccc(O)cc4)[nH]n3)c2)CC1 [Entry 58, 4-((E)-2-{3-[3-(4-methylpiperazin-1-yl)phenyl]-1H-pyrazol-5-yl}ethenyl)phenol]
